These results are taken from BindingDB's records for doi:10.1002/(SICI)1098-2396(199702)25:2 (University of Toronto, 1997).

Broadly, the Ki is the equilibrium dissociation constant of an inhibitor or competing ligand from its target. Lower therefore signals a stronger hold on the target.

In this assay the target is D(2) dopamine receptor (Mus musculus, UniProt P61168).
Sequence of D(2) dopamine receptor (P61168 whole entry): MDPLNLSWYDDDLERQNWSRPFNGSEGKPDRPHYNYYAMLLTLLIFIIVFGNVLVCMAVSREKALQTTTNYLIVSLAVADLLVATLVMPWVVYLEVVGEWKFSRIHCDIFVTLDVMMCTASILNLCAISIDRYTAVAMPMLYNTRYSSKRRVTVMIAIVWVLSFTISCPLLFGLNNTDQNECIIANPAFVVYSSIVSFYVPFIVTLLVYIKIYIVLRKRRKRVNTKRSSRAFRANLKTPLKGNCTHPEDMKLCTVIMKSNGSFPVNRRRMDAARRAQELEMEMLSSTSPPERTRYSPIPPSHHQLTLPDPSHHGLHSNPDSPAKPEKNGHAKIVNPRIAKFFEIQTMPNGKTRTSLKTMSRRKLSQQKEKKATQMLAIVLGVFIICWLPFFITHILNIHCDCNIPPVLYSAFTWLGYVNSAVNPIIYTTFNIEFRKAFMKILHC

Take `CCN1CCC[C@H]1CNC(=O)c1cc(S(N)(=O)=O)ccc1OC` [Sulpiride-S]: the Ki was found to be 1470 nM.

With `CCN1CCC[C@@H]1CNC(=O)c1cc(S(N)(=O)=O)ccc1OC` [Sulpiride-R], the affinity corresponds to a Ki of 1060 nM.
